Reference: ChEMBL document CHEMBL1201862, “PubChem BioAssay data set” (2004)
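Step 1: Grow cells in 96-well plates. Step 2: Expose to compound for 48 hours at 5 concentrations. Step 3: Interpolate endpoints linearly; if unreached, use highest concentration. GI50 = concentration required for 50% inhibition of growth.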 The source made the active and inactive calls. Rule as the data show it: active = GI50 up to about 1.1 µM and inactive = higher.

What was measured:
Experiment in all cases: NCI anticancer screen, dose series, 48 h
HOP-18 = system: HOP-18
DMS-273 = system: DMS-273
M19-MEL = system: M19-MEL
XF498 = system: XF498
SNB-78 = system: SNB-78
LXFL 529 = system: LXFL 529
KM-20L2 = system: KM-20L2
DMS-114 = system: DMS-114
RXF 631 = system: RXF 631

Structure (SMILES)	GI50 (HOP-18)	GI50 (DMS-273)	GI50 (M19-MEL)	GI50 (XF498)	GI50 (SNB-78)	GI50 (LXFL 529)	GI50 (KM-20L2)	GI50 (DMS-114)	GI50 (RXF 631)
CCOC(=O)C(=C=Cc1cccs1)C(=O)c1ccccc1	17.5 µM (inactive)	17.4 µM (inactive)	17.2 µM (inactive)	16.2 µM (inactive)	18.3 µM (inactive)	14.9 µM (inactive)	–	–	–
C=CCc1cc(-c2cc(CC=C)c(O)c(CNC)c2)cc(CNC)c1O	–	–	14.2 µM (inactive)	16.3 µM (inactive)	19.5 µM (inactive)	15.2 µM (inactive)	16.6 µM (inactive)	16.1 µM (inactive)	15.3 µM (inactive)
COc1ccc(/C=N/N=C(\N)NO)cc1O	> 100 µM (inactive)	–	–	–	> 100 µM (inactive)	> 100 µM (inactive)	–	30.2 µM (inactive)	–
N#CC1CC2(C(=O)C1=O)c1ccccc1-c1ccccc12 (stereo not drawn)	82 µM (inactive)	> 100 µM (inactive)	> 100 µM (inactive)	–	–	> 100 µM (inactive)	> 100 µM (inactive)	> 100 µM (inactive)	–
N#CC(C#N)=C1SCC(=O)CS1	–	> 100 µM (inactive)	> 100 µM (inactive)	> 100 µM (inactive)	> 100 µM (inactive)	> 100 µM (inactive)	> 100 µM (inactive)	> 100 µM (inactive)	> 100 µM (inactive)
C=Cc1c(-c2ccccc2)cnc2[nH]c3ccccc3c12	–	> 50 µM (inactive)	> 50 µM (inactive)	> 50 µM (inactive)	–	> 50 µM (inactive)	–	> 50 µM (inactive)	–
CC(=O)Oc1ccccc1C(=O)C1c2cccc(O)c2C(=O)c2c(O)cccc21	2.16 µM (inactive)	1.24 µM (inactive)	1.01 µM (active)	0.561 µM (active)	1.27 µM (inactive)	1.29 µM (inactive)	2.4 µM (inactive)	0.366 µM (active)	3.01 µM (inactive)
O=C1CSC(/C(=C/c2ccccc2)c2nc3ccccc3[nH]2)=N1	–	–	65.9 µM (inactive)	41.3 µM (inactive)	> 100 µM (inactive)	47.4 µM (inactive)	> 100 µM (inactive)	32.3 µM (inactive)	–
CCCC(O)c1cn(-c2cccc(S(=O)(=O)O)c2)nn1 (stereo not drawn)	> 100 µM (inactive)	> 100 µM (inactive)	> 100 µM (inactive)	> 100 µM (inactive)	> 100 µM (inactive)	> 100 µM (inactive)	> 100 µM (inactive)	> 100 µM (inactive)	> 100 µM (inactive)
NC(=O)C(=O)n1ncc(Cl)c(Cl)c1=O	20 µM (inactive)	25 µM (inactive)	24.7 µM (inactive)	17 µM (inactive)	20.3 µM (inactive)	15.1 µM (inactive)	28.7 µM (inactive)	16.9 µM (inactive)	–
[N-]=[N+]=NC(c1cn(C2CC(O)C(CO)O2)c(=O)[nH]c1=O)C(Br)Br (stereo not drawn)	> 100 µM (inactive)	> 100 µM (inactive)	> 100 µM (inactive)	–	> 100 µM (inactive)	> 100 µM (inactive)	> 100 µM (inactive)	> 100 µM (inactive)	–
CC(C)(C)NNC(=O)/C(=C/c1ccc([N+](=O)[O-])cc1)NC(=O)c1ccccc1	> 100 µM (inactive)	33.7 µM (inactive)	> 100 µM (inactive)	> 100 µM (inactive)	> 100 µM (inactive)	> 100 µM (inactive)	> 100 µM (inactive)	18.6 µM (inactive)	–
C/C(=N/Nc1ccc([N+](=O)[O-])cc1[N+](=O)[O-])C(CC(C(=O)Nc1ccccc1C)/C(C)=N\Nc1ccc([N+](=O)[O-])cc1[N+](=O)[O-])C(=O)Nc1ccccc1C (stereo not drawn)	14.4 µM (inactive)	14.8 µM (inactive)	12.4 µM (inactive)	14.5 µM (inactive)	16.4 µM (inactive)	14.3 µM (inactive)	31 µM (inactive)	6.87 µM (inactive)	–
N#CCC(=O)N1CCCCCCC1	–	35.7 µM (inactive)	–	–	> 100 µM (inactive)	77.8 µM (inactive)	> 100 µM (inactive)	31.3 µM (inactive)	–
CC1(C)OCC(CO)(Nc2nc(N3CC3)nc(N3CC3)n2)CO1	27 µM (inactive)	3.04 µM (inactive)	13.9 µM (inactive)	14.3 µM (inactive)	22.3 µM (inactive)	24.5 µM (inactive)	18.6 µM (inactive)	4.65 µM (inactive)	–
CCN(CC)Cc1cc(Nc2c3ccccc3nc3c2[nH]c2ccccc23)ccc1O	1.6 µM (inactive)	0.565 µM (active)	1.63 µM (inactive)	1.76 µM (inactive)	2 µM (inactive)	1.39 µM (inactive)	0.867 µM (active)	1.64 µM (inactive)	1.8 µM (inactive)
COC1(C)C(=O)N2C1N(C(=O)OC(C)(C)C)CC2(C)C (stereo not drawn)	> 100 µM (inactive)	> 100 µM (inactive)	> 100 µM (inactive)	–	> 100 µM (inactive)	> 100 µM (inactive)	> 100 µM (inactive)	42.8 µM (inactive)	–
COc1ccc(C(=O)C/C(=N/NC(N)=S)C(=O)Nc2ccccc2)cc1	> 100 µM (inactive)	> 100 µM (inactive)	> 100 µM (inactive)	> 100 µM (inactive)	> 100 µM (inactive)	97.7 µM (inactive)	> 100 µM (inactive)	> 100 µM (inactive)	–
COC(=O)C1=C(O)C(O)=C(C(=O)OC)CC1	> 100 µM (inactive)	> 100 µM (inactive)	> 100 µM (inactive)	> 100 µM (inactive)	> 100 µM (inactive)	> 100 µM (inactive)	–	> 100 µM (inactive)	–
COC(=O)C1=C(C)C(=O)[C@H]2C(C(=O)OC)CCCC[C@@H]12 (stereo partly drawn)	> 100 µM (inactive)	90.2 µM (inactive)	> 100 µM (inactive)	89.9 µM (inactive)	> 100 µM (inactive)	> 100 µM (inactive)	> 100 µM (inactive)	20.9 µM (inactive)	–
